From article PMC8566451, “Lead optimization of novel quinolone chalcone compounds by a structure–activity relationship (SAR) study to increase efficacy and metabolic stability” (Scientific Reports, 2021)

Key:
[1] = tested on: cancer cell lines (breast cancer, melanoma, cervical cancer); assay: SRB assay, average GI50 over cancer cell lines; format: cell-based; details: for GI50: average over the cell lines of Table 1 or Supplemental Table S1, read-out: average GI50
Description: (§1) The SRB assay was used to assess drug-induced cytotoxicity and cell proliferation as previously described[2],[33],[34] with a few modifications. Briefly, cells were plated 10,000 to 25,000 cells/cm^2 in 96-well plates (100 µl medium) and allowed to adhere overnight. The cell counts were different for each cell line to ensure optimal cell growth for the duration of the assay. Eight different concentrations of compound solutions using 2–4 times serial dilutions (100 µl). Cells were then incubated for an additional 48 h and then fixed with 100 µl ice-cold 10% (w/v) trichloroacetic acid (TCA) (without removing the cell medium, final concentration, 3.3% of TCA) and stained with 0.4% SRB (w/v) in 1% acetic acid (v/v). The relative growth rate (%) was calculated for each of the compound concentrations according to the following formula: 100 * (T − T0)/(C − T0), in which T is the optical density (OD) after exposure to a certain concentration of the compound after 48 h, T0 is the OD at the start of drug exposure (time zero) and C is the control growth. The GI50 for each compound was obtained from a non-linear sigmoidal dose–response (variable slope) curve fitted by GraphPad Prism v.4.03 software.

MDA-MB231-TaxR = assay: Sulforhodamine B (SRB) assay; format: cell-based; details: Homo sapiens, MDA-MB231-TaxR paclitaxel-resistant breast cancer cells, 48 h
Description: We had initially determined that quinolone chalcones were promising anti-proliferative through a first round screening and identified CTR-17 and CTR-20 as favorable structures for anticancer activity. […] We carried out a comparative SAR study to determine if we could further optimize the quinolone chalcone to maximize efficacy. The Sulforhodamine B (SRB) assay was used to measure the anti-proliferative/cell killing activities of CTRs, for which several different cell lines were use: the cervical cancer HeLa, the breast cancer cell lines MDA-MB231, MDA-MB468, MDA-MB231TaxR (an induced paclitaxel-resistant sub-cell line of the MDA-MB231[9]) and MCF7. In addition, a subset was tested against the melanoma cell lines MZ-MEL-3.1, Mel-SOE, UKRV-Mel-38, UKRV-Mel-17 and MDA-MB-435 (Table 1, Supplemental Table S1).
as §1

MDA-MB231 = assay: Sulforhodamine B (SRB) assay; format: cell-based; details: Homo sapiens, MDA-MB-231; for GI50: MDA-MB231 breast cancer cells, 48 h, SRB; for IC50: Supplementary Table S1, SRB
Description: (§2) The human MDA-MB-231, MCF7, MDA-MB-468, RPMI-8226 and HeLa cell lines were purchased from ATCC and maintained in Dulbecco's Modified Eagle Medium (DMEM)—high glucose supplemented with 10% fetal bovine serum (FBS) and antibiotics/antimycotics. Cell line authentication was carried out by Genetica DNA Laboratories (Burlington, NC) using a short tandem repeat (STR) profiling method (March 2015; July 2015; September 2016). Melanoma cells E-055 (MZ-Mel-3), E-097 (Mel-SOE), E-112 (UKRV-Mel-38), E-157 (UKRV-Mel-17) were obtained from the European Searchable Tumour Line Database (ESTDAB) cell bank (a kind gift of Dr. Graham Pawelec, Tubingen University, Germany). MDA-MB-435 was purchased from the Division of Cancer Treatment and Diagnosis Tumor Repository. All melanoma cells were cultured in Roswell Park Memorial Institute (RPMI) medium supplemented with 10% FBS and P/S/antimycotics. Primary human epidermal melanocytes from normal adult abdominal skin were purchased from ATCC (cat # PCS-200–013) and Cell Applications (cat#104-05a). The melanocytes were cultured in the media supplied by the companies.
as §1

HeLa = assay: Sulforhodamine B (SRB) assay; format: cell-based; details: Homo sapiens; for GI50: HeLa cervical cancer cells, 48 h, SRB; for IC50: HeLa, Supplementary Table S1, SRB
Description: as §2, §1

MCF7 = assay: Sulforhodamine B (SRB) assay; format: cell-based; details: Homo sapiens; for GI50: MCF7 breast cancer cells, 48 h, SRB; for IC50: MCF7, Supplementary Table S1, SRB
Description: as §2, §1

MDA-MB468 = assay: Sulforhodamine B (SRB) assay; format: cell-based; details: Homo sapiens, MDA-MB-468, MDA-MB468 breast cancer cells, 48 h
Description: as §2, §1

Mel-SOE = assay: Sulforhodamine B (SRB) assay; format: cell-based; details: Mel-SOE melanoma cells, 48 h
Description: as §2, §1

UKRV-Mel-38 = assay: Sulforhodamine B (SRB) assay; format: cell-based; details: UKRV-Mel-38 melanoma cells, 48 h
Description: as §2, §1

UKRV-Mel-17 = assay: Sulforhodamine B (SRB) assay; format: cell-based; details: UKRV-Mel-17 melanoma cells, 48 h
Description: as §2, §1

MZ-Mel-3 = assay: Sulforhodamine B (SRB) assay; format: cell-based; details: MZ-Mel-3 melanoma cells, 48 h
Description: as §2, §1

MDA-MB435 = assay: Sulforhodamine B (SRB) assay; format: cell-based; details: Homo sapiens, MDA-MB-435, MDA-MB435 cells, 48 h
Description: as §2, §1

HeLa cells = assay: Cell cycle analysis by flow cytometry; format: cell-based, human; details: 3× GI50, 12 or 24 h, HeLa and UKRV-Mel-38 (Supplemental Fig. S11)
Description: Figure 5 CTR-21 arrests cells at G2/M, eventually leading to cell death by apoptosis. (a) Effects of CTR-21 on the cell cycle progression of HeLa and E112 cells. […] (b) Cell morphology of CTR-21 arrested cells. HeLa cells were treated with 30 nM of CTR-21 for 12 h, fixed with methanol and immunostained with α-tubulin or γ-tubulin, and counterstained with DAPI. Bar = […]. (c) CTR-21 promotes PARP cleavage. […] GAPDH was used as a loading control.
Cell cycle progression was determined using flow cytometry. UKRV-Mel-38 and HeLa cells were plated onto 10 cm plate at a density of 0.5 million and treated them with or without the compounds the following day for 12, 24 or 48 h. Cells were then harvested and centrifuged at 1000 rpm for 5 min, washed in PBS and then fixed with ice-cold ethanol (70%) for at least 24 h at − 20 °C. The cells were centrifuged, re-suspended in PBS solution, followed by centrifugation. The cell pellet was then stained with 100 μg/mL propidium iodide (PI) and 100 μg/mL RNase A in distilled water for at least 1 h. DNA content was measured using a Beckmann Coulter Cytomics FC500 (Beckman Coulter, Fullerton, CA), and the proportion of cell populations in G0/G1, S, and G2/M phases of cell cycle was calculated on the basis of DNA distribution histograms using CXP software (Beckman Coulter, Fullerton, CA).

RPMI-8226 = assay: Sulforhodamine B (SRB) assay; format: cell-based; details: Homo sapiens, Supplementary Table S1, SRB
Description: as §2, §1

porcine tubulin = target: T1, porcine tubulin (Sus scrofa, UniProt P02550+P02554); assay: In vitro tubulin polymerization assay; format: biochemical; details: 3 µM compound, 20 µM porcine tubulin, 37 °C, 60 min
T1 construct: purchased Cytoskeleton Inc., Denver, CO BK011P
T1 sequence (P02554 whole entry): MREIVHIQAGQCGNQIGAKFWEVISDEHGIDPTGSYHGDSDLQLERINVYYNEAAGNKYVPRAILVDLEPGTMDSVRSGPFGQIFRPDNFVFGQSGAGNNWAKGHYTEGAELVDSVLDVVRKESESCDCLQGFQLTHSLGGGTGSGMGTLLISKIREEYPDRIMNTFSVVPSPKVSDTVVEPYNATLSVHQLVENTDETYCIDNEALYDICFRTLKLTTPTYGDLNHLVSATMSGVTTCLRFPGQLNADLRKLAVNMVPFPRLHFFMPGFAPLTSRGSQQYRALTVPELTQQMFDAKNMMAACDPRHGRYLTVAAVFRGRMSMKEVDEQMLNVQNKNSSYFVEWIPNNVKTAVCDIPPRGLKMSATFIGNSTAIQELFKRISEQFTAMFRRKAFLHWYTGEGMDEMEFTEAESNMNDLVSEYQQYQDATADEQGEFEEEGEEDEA
T1 sequence (P02550 whole entry): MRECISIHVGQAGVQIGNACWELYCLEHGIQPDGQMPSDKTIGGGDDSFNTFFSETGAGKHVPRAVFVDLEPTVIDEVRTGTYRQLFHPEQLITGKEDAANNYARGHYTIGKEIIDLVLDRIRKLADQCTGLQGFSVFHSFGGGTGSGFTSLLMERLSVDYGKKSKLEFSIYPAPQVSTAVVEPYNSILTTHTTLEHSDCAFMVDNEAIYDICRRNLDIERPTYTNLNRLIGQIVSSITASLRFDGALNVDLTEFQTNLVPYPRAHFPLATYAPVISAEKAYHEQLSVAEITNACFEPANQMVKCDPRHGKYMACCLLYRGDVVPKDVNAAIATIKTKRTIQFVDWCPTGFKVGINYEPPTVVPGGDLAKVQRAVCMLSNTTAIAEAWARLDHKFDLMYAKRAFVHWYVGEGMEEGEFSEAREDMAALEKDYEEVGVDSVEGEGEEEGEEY
Description: Spontaneous polymerization of 20 µM porcine tubulin was initiated with the addition of 1 mmol/L GTP at 37 °C and monitored every minute for 60 min in the presence of the indicated concentration of CTR-21, CTR-32, nocodazole, paclitaxel, or a DMSO vehicle control. To make the graph simpler, only 3 µM concentration is shown. […] A modified Dixon plot was used to determine the inhibitory concentration of CTR-21 and CTR-32 (Ki).
Microtubule assembly was assessed using a Tubulin Polymerization assay kit (BK011P; Cytoskeleton Inc., Denver, CO). […] Polymerization was started by incubating at 37 °C and followed by absorbance readings every 1 min at 340 nm for 1 h using a Synergy H4 plate reader.

| Compound | GI50 [1] [nM] | GI50 (MDA-MB231-TaxR) [nM] | GI50 (MDA-MB231) [nM] | GI50 (HeLa) [nM] | GI50 (MCF7) [nM] | GI50 (MDA-MB468) [nM] | GI50 (Mel-SOE) [nM] | GI50 (UKRV-Mel-38) [nM] | GI50 (UKRV-Mel-17) [nM] | GI50 (MZ-Mel-3) [nM] | GI50 (MDA-MB435) [nM] | cell cycle effect (HeLa cells) | potency compared to CTR-17 [1] | IC50 (MDA-MB231) [nM] | IC50 (RPMI-8226) [nM] | IC50 (HeLa) [nM] | IC50 (MCF7) [nM] | effect on tubulin polymerization (porcine tubulin) |
| --- | --- | --- | --- | --- | --- | --- | --- | --- | --- | --- | --- | --- | --- | --- | --- | --- | --- | --- |
| COc1ccccc1C(=O)/C=C/c1cc2ccccc2[nH]c1=O [CTR-17, (E)-3-(3-(2-methoxyphenyl)-3-oxoprop-1-enyl)quinolin-2(1H)-one] | 464 | 1300 ± 83 | 657 ± 72 | 280 ± 78 | 485 ± 97 | 320 ± 26 | 786 ± 52 | 626 ± 154 | 504 ± 33 | 227 ± 30 | 290 ± 66 |  |  |  |  |  |  |  |
| COc1ccccc1C(=O)/C=C/c1cc2cc(C)ccc2[nH]c1=O [CTR-18, (E)-3-(3-(2-methoxyphenyl)-3-oxoprop-1-enyl)-6-methylquinolin-2(1H)-one] | 499 | 1210 ± 179 | 530 ± 119 | 443 ± 112 | 510 ± 38 | 304 ± 2 | 817 ± 34 | 746 ± 177 | 596 ± 162 | 239 ± 13 | 307 ± 7 |  |  |  |  |  |  |  |
| COc1ccc2cc(/C=C/C(=O)c3ccccc3OC)c(=O)[nH]c2c1 [CTR-19, (E)-7-Methoxy-3-(3-(2-methoxyphenyl)-3-oxoprop-1-enyl) quinolin-2(1H)-one] | 7300 | 7090 ± 1060 | 6510 ± 1390 | 6820 ± 1390 | 11900 | 3540 ± 60 | 10100 | 3770 ± 206 | 11200 | 6830 ± 957 | 4720 ± 2760 | arrests cells in G2/M, albeit at a much higher concentration | lower toxicity potency |  |  |  |  |  |
| COc1ccc2[nH]c(=O)c(/C=C/C(=O)c3ccccc3OC)cc2c1 [CTR-20, (E)-6-Methoxy-3-(3-(2-methoxyphenyl)-3-oxoprop-1-enyl) quinolin-2(1H)-one] | 232 | 966 ± 163 | 216 ± 21 | 124 ± 36 | 194 ± 21 | 408 ± 12 | 338 ± 78 | 338 ± 33 | 283 ± 57 | 98 ± 21 | 90 ± 10 |  |  |  |  |  |  |  |
| COc1ccc2[nH]c(=O)c(/C=C/C(=O)c3ccc(F)cc3OC)cc2c1 [CTR-38, (E)-3-(3-(4-fluoro-2-methoxyphenyl)-3-oxoprop-1-enyl)-6-methoxyquinolin-2(1H)-one] | 98 |  |  |  |  |  |  |  |  |  |  |  |  | 150 ± 10 | 40 ± 10 | 60 ± 10 | 140 ± 20 |  |
| CCOc1ccccc1C(=O)/C=C/c1cc2cc(OC)ccc2[nH]c1=O [CTR-40, (E)-3-(3-(2-ethoxyphenyl)-3-oxoprop-1-enyl)-6-methoxyquinolin-2(1H)-one] | 36 | 54 ± 13 | 30 ± 4 | 19 ± 1 | 41 ± 5 | 77 ± 13 | 53 ± 4 | 42 ± 11 | 28 ± 5 | 11 | 23 |  |  | 130 ± 20 | 50 ± 20 | 40 | 90 ± 10 |  |
| COC(=O)Nc1nc2ccc(C(=O)c3cccs3)cc2[nH]1 [Noco, Nocodazole, reference compound] |  | 47 ± 11 | 35 ± 4 | 25 ± 1 | 33 ± 7 | 48 ± 7 | 51 ± 11 | 34 ± 3 | 39 ± 1 | 23 ± 2 | 18 ± 2 |  |  |  |  |  |  | reduced steady-state |
| CC(=O)O[C@H]1C(=O)[C@@]2(C)[C@H]([C@H](OC(=O)c3ccccc3)[C@]3(O)C[C@H](OC(=O)[C@H](O)[C@@H](NC(=O)c4ccccc4)c4ccccc4)C(C)=C1C3(C)C)[C@]1(OC(C)=O)CO[C@@H]1C[C@@H]2O [Tax, paclitaxel, reference compound] |  | 131 ± 35 | 3 ± 1 | 8 ± 1 | 6 ± 1 | 9 ± 3 | 60 ± 16 | 6 ± 1 | 14 ± 4 | 58 ± 15 | 4 ± 1 |  |  |  |  |  |  | shorter nucleation phase, steeper growth phase, and reaches steady state quicker |
